Measurements taken from patent US9932637B2, “Genetic polymorphisms associated with cardiovascular disorders and drug response, methods of detection and uses thereof” (CELERA CORPORATION, priority 2003, dated 2018).
Values joined by “and” are separate entries in the source; they are usually repeats but may differ in a detail not shown here. Equal entries are not always repeated.

Tested on: patients with prior myocardial infarction (CARE study)
Assay: CARE aligned analysis (prospective and case/control design, white males): association of genotypes with pravastatin efficacy (Tables 13, 15)
Format: in vivo, human
Protocol: The data presented in Table 8 based on an association of genotypes with pravastatin efficacy of the CARE samples were further analyzed and presented in Table 13. The further analysis was performed to align the data obtained from the analysis of the CARE samples, which was a prospective study, to the analysis of the WOSCOP samples, which was a case/control study. Table 13 also presents an analysis of the association of genotypes with pravastatin efficacy in the WOSCOPs samples. Relative to the analysis performed on the data presented in Table 8, there are two significant differences to determine if the SNP influenced pravastatin efficacy. Data obtained from the CARE samples were separated by study design into two groups, those in the prospective study design group and those in the case/control study design group. The original care study contained 16 protocol defined cardiovascular disease defined endpoints and 150 other phenotypes. […] The control groups used to compare the data were also divided into two groups, the “all possible” control group and the “cleaner” control group. […] Because the participants in the WOSCOPs trial were all white males, only data obtained from white males in the CARE study were analysed. Data from the “all possible” and “cleaner” controls were compared to data obtained from the cases in the prospective study design while only data from “cleaner” controls were compared to cases in the case/control study design. The data from the case/control cohorts were analysed using conditional logistic regression (as opposed to logistic regression used for the original anaylsis).
The anaylsis was refined as described for both Tables 13 and 14.

[1] = CD6 hCV2553030, CARE, Case/Control, F MI/SD/NF MI
[2] = CD6 hCV2553030, CARE, Prospective, F MI/SD/NF MI
[3] = CD6 hCV25922320, CARE, Case/Control, F MI/SD/NF MI
[4] = CD6 hCV25922320, CARE, Case/Control, F MI/SD/NF MI, listed as Pravastatin
[5] = CD6 hCV25922320, CARE, Prospective, F MI/SD/NF MI
[6] = CD163 hCV25591528, CARE Case/Control, F&NF MI
[7] = CD163 hCV25591528, CARE Prospective, F&NF MI, listed as Pravastatin
[8] = CD163 hCV25591528, CARE, Case/Control, F MI/SD/NF MI, listed as Pravastatin
[9] = CD163 hCV25591528, CARE, Prospective, F MI/SD/NF MI
[10] = COL2A1 hCV3276198, CARE Case/Control, F&NF MI
[11] = COL11A1 hCV8400671, CARE Case/Control, F&NF MI
[12] = CR1 hCV25598594, CARE Case/Control, F&NF MI
[13] = CR1 hCV25598594, CARE Prospective, F&NF MI
[14] = CR1 hCV25598594, CARE, Case/Control, F MI/SD/NF MI
[15] = CR1 hCV25598594, CARE, Prospective, F MI/SD/NF MI
[16] = CXCL16 hCV8718197, CARE Prospective, F&NF MI
[17] = CXCL16 hCV8718197, CARE, Case/Control, F MI/SD/NF MI
[18] = CXCL16 hCV8718197, CARE, Prospective, F MI/SD/NF MI
[19] = CYBA hCV2038, CARE Case/Control, F&NF MI
[20] = ELN hCV1253630, CARE, Case/Control, F MI/SD/NF MI
[21] = ELN hCV1253630, CARE, Prospective, F MI/SD/NF MI
[22] = F7 hCV783138, CARE Case/Control, F&NF MI

CC[C@H](C)C(=O)O[C@H]1C[C@H](O)C=C2C=C[C@H](C)[C@H](CC[C@@H](O)C[C@@H](O)CC(=O)O)[C@H]21 [pravastatin]
Pravastatin vs placebo odds ratio, 2 rare alleles (CAPN10 hCV25614016, CARE, Prospective, F MI/SD/NF MI): 0.90 and 0.78
OR of fatal MI/sudden death/non-fatal MI in the presence of statin treatment (CARE, hCV2442143, 0 rare alleles): 0.42
OR of fatal MI/sudden death/non-fatal MI in the presence of statin treatment (CARE, hCV2442143, one rare allele, not statistically significant): 0.78
OR of fatal MI/sudden death/non-fatal MI in the presence of statin treatment (CARE, hCV2442143, two rare alleles, not statistically significant): 1.16
2 Rare Alleles n/total, Pravastatin Patients (CD6 hCV2553030, CARE Case/Control, F&NF MI): 2/91 and 2/63
2 Rare Alleles n/total, Pravastatin Patients (CD6 hCV2553030, CARE Prospective, F&NF MI): 2/92 and 2/64
Pravastatin vs placebo odds ratio, 0 rare alleles [1]: 0.97 and 0.92
Pravastatin vs placebo odds ratio, 1 rare allele [1]: 0.80 and 0.68
Pravastatin vs placebo odds ratio, 2 rare alleles [1]: 0.06 and 0.04
Pravastatin vs placebo odds ratio, 0 rare alleles [2]: 0.97 and 0.88
Pravastatin vs placebo odds ratio, 1 rare allele [2]: 0.81 and 0.72
Pravastatin vs placebo odds ratio, 2 rare alleles [2]: 0.06 and 0.04
2 rare alleles n/total (%), pravastatin patients [3]: (17.9%)
Pravastatin vs placebo odds ratio, 2 rare alleles [3]: 1.44
Pravastatin vs placebo odds ratio, 0 rare alleles [4]: 0.57 and 0.49
Pravastatin vs placebo odds ratio, 1 rare allele [4]: 1.39 and 1.36
Pravastatin vs placebo odds ratio, 2 rare alleles [4]: 1.09
2 rare alleles n/total (%), pravastatin patients [5]: (17.9%)
Pravastatin vs placebo odds ratio, 0 rare alleles [5]: 0.58 and 0.51
Pravastatin vs placebo odds ratio, 1 rare allele [5]: 1.39 and 1.27
Pravastatin vs placebo odds ratio, 2 rare alleles [5]: 1.09 and 1.17
2 Rare Alleles n/total, Pravastatin Patients [6]: 4/24 and 4/21
Pravastatin vs placebo odds ratio, 2 rare alleles [6]: 1.23 and 0.64
Pravastatin vs placebo odds ratio, 2 rare alleles (CD163 hCV25591528, CARE Prospective, F&NF MI): 0.59
2 Rare Alleles n/total, Pravastatin Patients [7]: 4/25 and 4/21
Pravastatin vs placebo odds ratio, 2 rare alleles [7]: 1.14
Pravastatin vs placebo odds ratio, 2 rare alleles (CD163 hCV25591528, CARE, Case/Control, F MI/SD/NF MI): 0.99
Pravastatin vs placebo odds ratio, 0 rare alleles [8]: 0.96 and 0.88
Pravastatin vs placebo odds ratio, 1 rare allele [8]: 0.29 and 0.27
Pravastatin vs placebo odds ratio, 2 rare alleles [8]: 1.97
Pravastatin vs placebo odds ratio, 0 rare alleles [9]: 0.97 and 0.86
Pravastatin vs placebo odds ratio, 1 rare allele [9]: 0.30 and 0.28
Pravastatin vs placebo odds ratio, 2 rare alleles [9]: 0.88
2 Rare Alleles (%), Pravastatin Patients [10]: (35.0%)
2 Rare Alleles n/total, Pravastatin Patients [10]: 7/20
2 Rare Alleles (%), Pravastatin Patients [11]: (1.9%)
2 Rare Alleles n/total, Pravastatin Patients [11]: 1/52
2 Rare Alleles (%), Pravastatin Patients [12]: (0.0%)
2 Rare Alleles n/total, Pravastatin Patients [12]: 0/0
2 Rare Alleles (%), Pravastatin Patients [13]: (0.0%)
2 Rare Alleles n/total, Pravastatin Patients [13]: 0/0
Pravastatin vs placebo odds ratio, 0 rare alleles [14]: 0.86 and 0.78
Pravastatin vs placebo odds ratio, 1 rare allele [14]: 0.09 and 0.07
Pravastatin vs placebo odds ratio, 0 rare alleles [15]: 0.87 and 0.78
Pravastatin vs placebo odds ratio, 1 rare allele [15]: 0.08 and 0.06
2 Rare Alleles n/total, Pravastatin Patients (CXCL16 hCV8718197, CARE Case/Control, F&NF MI): 32/233 and 32/160
2 Rare Alleles (%), Pravastatin Patients [16]: (19.8%)
2 Rare Alleles n/total, Pravastatin Patients [16]: 32/237 and 32/162
2 rare alleles n/total (%), pravastatin patients [17]: (17.4%)
Pravastatin vs placebo odds ratio, 0 rare alleles [17]: 0.38
Pravastatin vs placebo odds ratio, 1 rare allele [17]: 0.91
Pravastatin vs placebo odds ratio, 2 rare alleles [17]: 1.12
2 rare alleles n/total (%), pravastatin patients [18]: (17.2%)
Pravastatin vs placebo odds ratio, 0 rare alleles [18]: 0.38
Pravastatin vs placebo odds ratio, 1 rare allele [18]: 0.92
Pravastatin vs placebo odds ratio, 2 rare alleles [18]: 1.06
2 Rare Alleles (%), Pravastatin Patients [19]: (16.9%)
2 Rare Alleles n/total, Pravastatin Patients [19]: 23/136
2 rare alleles n/total (%), pravastatin patients [20]: (18.3%)
Pravastatin vs placebo odds ratio, 0 rare alleles [20]: 0.53
Pravastatin vs placebo odds ratio, 1 rare allele [20]: 0.70
Pravastatin vs placebo odds ratio, 2 rare alleles [20]: 1.64
2 rare alleles n/total (%), pravastatin patients [21]: (18.2%)
Pravastatin vs placebo odds ratio, 0 rare alleles [21]: 0.52
Pravastatin vs placebo odds ratio, 1 rare allele [21]: 0.71
Pravastatin vs placebo odds ratio, 2 rare alleles [21]: 1.60
2 Rare Alleles n/total, Pravastatin Patients (ELN hCV1253830, CARE Case/Control, F&NF MI): 28/204 and 28/133
2 Rare Alleles n/total, Pravastatin Patients (ELN hCV1253830, CARE Prospective, F&NF MI): 28/208 and 28/136
2 Rare Alleles (%), Pravastatin Patients [22]: (7.7%)
2 Rare Alleles n/total, Pravastatin Patients [22]: 1/13 and 1/9
2 Rare Alleles (%), Pravastatin Patients (F7 hCV783138, CARE Prospective, F&NF MI): (7.7%)
